These results are taken from patent US6359015B1, “Method for antagonizing inhibition effects of alcohol on cell adhesion” (The United States of America as represented by the …, priority 2000, dated 2002).

The subject of one data set is NG108-15 cells. The experiment in a line: BMP-7 morphogenesis (cell clusters) in NG108-15 cells. The class given is cell-based, rat and mouse. As to conditions: 3 days; for Antagonism of ethanol inhibition of BMP-7 morphogenesis: 50 mM ethanol and 0.05 mM 1-octanol. On the procedure: NG108-15 cells were plated from suspensions of single cells at a density of 50,000 cells/well in poly-D-lysine-coated, 6-well plated containing serum-free medium in the absence or presence of BMP-7, as described (References 17-18). […] Control cultures were treated similarly. The media for all cells was replaced daily following the addition of ethanol. […] A cell cluster was defined as a group of three or more cells that adhered to each other along at least one quarter of their cell bodies (Reference 19). The percentage of cells in clusters was calculated by dividing the number of cells present in clusters by the total number of cells (150 to 200) in each field. Values obtained for each field of a treatment group were then averaged.
Treatment with BMP-7 for 48 hours causes NG108-15 cells to grow in clusters of adherent cells (BMP-7 morphogenesis), rather than as predominantly single cells.
The percentage of cells in clusters of three or more cells was scored from two separate fields viewed under 200×magnification.

The test system of data set [1] is BMP-7 treated NG108-15 cells. The experiment in a line: Antagonism of short-chain alcohol inhibition of cell adhesion in BMP-7 treated NG108-15 cells. It counts as cell-based, rat and mouse. As for the experimental part:
(§1) Cell-cell adhesion was measured using a modified short-term aggregation assay of sub-confluent cells (Reference 12). Cells were detached by gentle agitation, mechanically dissociated to obtain a single-cell suspension, and diluted in PBS supplemented with 0.1 mg/ml DNase to 350,000 cells/ml for the NIH/3T3 cells, and 250,000 cells/ml for the NG108-15 cells. One ml of the cell suspension was added per well (4.5 cm^2) of a 12-well plate. After addition of the alcohols, the cells were gently mixed and mechanically shaken for 30 minutes at room temperature on an orbital shaker set at 60 to 80 rpm. Cells were viewed at a final magnification of 200×, and each well was scored for single and adherent cells in five or six microscopic fields of view. We counted approximately 100 cells per field of view and 600 cells per well. The percentage of adherent cells was calculated for each microscopic field of view and averaged. To calculate the magnitude of ethanol inhibition, we subtracted the values for cell adhesion with the Vec-1A5 cells from those of the 2B2-L1 or 2A2-L1 cell lines. Similarly, the values for cell adhesion in NG108-15 cells cultured in serum-free medium were subtracted from those of NG108-15 cells treated with BMP-7.

For data set [2] the following is noted: published or calculated from molecular weight and density at 20° C.; cited from earlier work.
The subject of data set [3] is NIH/3T3-L1 (2B2-L1) cells. The experiment in a line: Antagonism of 1-butanol inhibition of cell adhesion in NIH/3T3-L1 (2B2-L1) cells. The class given is cell-based, rat. As to conditions: 1-octanol 5 and 50 μM, 2B2-L1 cells. On the procedure:
as §1, with “BMP-7. […]” for “BMP-7.”

A further data set concerns the target T1, GIRK ¼ potassium channel (Homo sapiens, UniProt P48544+P48549).
T1 sequence (P48549 1-501): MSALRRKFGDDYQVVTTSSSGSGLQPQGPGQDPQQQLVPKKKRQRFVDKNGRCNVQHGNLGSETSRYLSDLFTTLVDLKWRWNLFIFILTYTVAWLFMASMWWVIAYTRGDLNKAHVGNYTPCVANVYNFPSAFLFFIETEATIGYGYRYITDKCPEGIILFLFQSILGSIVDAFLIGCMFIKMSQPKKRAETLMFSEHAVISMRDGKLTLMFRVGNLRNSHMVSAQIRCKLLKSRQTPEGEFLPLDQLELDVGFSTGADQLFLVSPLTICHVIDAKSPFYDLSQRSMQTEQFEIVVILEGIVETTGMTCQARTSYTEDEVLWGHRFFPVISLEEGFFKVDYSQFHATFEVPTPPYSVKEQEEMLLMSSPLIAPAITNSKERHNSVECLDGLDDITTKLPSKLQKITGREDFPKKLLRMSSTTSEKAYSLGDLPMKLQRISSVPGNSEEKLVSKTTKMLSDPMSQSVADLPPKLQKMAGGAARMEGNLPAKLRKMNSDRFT
T1 sequence (P48544 1-419): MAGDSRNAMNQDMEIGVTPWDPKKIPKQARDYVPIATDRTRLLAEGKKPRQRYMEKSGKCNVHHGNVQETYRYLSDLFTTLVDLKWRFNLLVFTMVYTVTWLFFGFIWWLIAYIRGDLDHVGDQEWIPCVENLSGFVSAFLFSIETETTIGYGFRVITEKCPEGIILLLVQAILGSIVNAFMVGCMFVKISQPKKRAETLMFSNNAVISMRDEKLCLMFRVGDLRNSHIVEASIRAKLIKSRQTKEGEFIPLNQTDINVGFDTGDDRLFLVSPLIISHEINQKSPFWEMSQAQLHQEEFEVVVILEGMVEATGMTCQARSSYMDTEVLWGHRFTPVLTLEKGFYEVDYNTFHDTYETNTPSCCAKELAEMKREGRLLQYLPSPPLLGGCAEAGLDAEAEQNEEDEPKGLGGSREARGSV
As to conditions: Reference 20; cited from earlier work.

Data set [4] has as its system BMP-7 treated NG108-15 neuroblastoma×glioma cells. The experiment in a line: Cell-cell adhesion (short-term aggregation) assay in BMP-7 treated NG108-15 cells. Particulars: for Inhibition of cell-cell adhesion (in words): both cellular systems (NG108-15 + BMP-7 and L1-expressing NIH/3T3). It counts as cell-based, rat and mouse. On the procedure:
NIH/3T3 cells were cultured in Dulbecco's minimum Eagle medium (DMEM) (Life Technologies, Gaithersburg, Md.) supplemented with 10% normal calf serum (Intergen, Purchase, N.Y.) and 400 μg/ml G418 (Life Technologies). NG108-15 neuroblastoma×glioma cells (passages 21 to 30) were plated in serum-free, defined medium (Reference 16). At the start of the morphogenetic and cell adhesion assays, serum-free medium containing BMP-7 (Creative BioMolecules, Hopkinton, Ma.) (1-40 ng/ml, final) was added daily to the NG108-15 cells. Both cell lines were cultured at 37° C., in an atmosphere of 90% air and 10% CO2. Three NIH/3T3 subclones were utilized in these studies: 2B2-L1, 2A2-L1 and Vec-1A5. The 2B2-L1 and 2A2-L1 cell lines are subclones derived from a stable transfection of NIH/3T3 cells with the human L1 cDNA, and Vec-1A5 is a subclone from a transfection with the empty expression vector (Reference 12).
Cells were cultured and cell adhesion assays were performed in the absence and presence of the alcohols listed below in Table 1. The concentrations of alcohols used in the adhesion assays were calculated to produce membrane concentrations equivalent to 50-100 mM ethanol. Membrane/buffer partition coefficients (Pm/b) were obtained or were calculated from published octanol/water partition coefficients (Reference 15). Molar volumes were obtained from published sources (References 15) or were calculated from molecular weights and densities at 20° C.
as §1
We tested the effects of a series of alcohols on cell-cell adhesion in two well-characterized model systems. NG108-15 cells were incubated for 48 hours in a serum-free medium supplemented with 10-20 ng/ml BMP-7 to induce L1 and N-CAM gene expression (Reference 10). Parallel experiments were performed using two ethanol-sensitive NIH/3T3 cell lines transfected with human L1 (2B2-L1 and 2A2-L1) (Reference 12) and a NIH/3T3 cell line transfected with the empty expression vector (1A5-V).

The conditions of data set [5]: from published source or octanol/water partition coefficient divided by 5; cited from earlier work.
The subject of data set [6] is Myeloma cells transfected with L1. Particulars: References 14 and 21; cited from earlier work.
Data set [7] concerns insect SF9 cells transfected with L1. Particulars: References 14 and 21; cited from earlier work.

“Also recorded” adds a separate entry of the source. Like-named read-outs stand apart in the source and are kept apart here.

Usually IC50 stands for the concentration that inhibits the measured activity by half. For `CCCCCCCCO` [1-octanol], the “Antagonism of ethanol inhibition of BMP-7 morphogenesis” value in the data set on NG108-15 cells was “antagonized”; in the data set with NG108-15 cells (listed as Octanol), “completely abolished”. Moreover, the “Antagonism of inhibition of cell-cell adhesion by 1-butanol (in words)” value in data set [1] (2 mM 1-butanol, BMP-7 treated NG108-15 cells) is reported as “completely abolished”. The “Antagonism of the effects of 3-methyl-1-butanol on cell adhesion (in words)” value in data set [1] (3 mM 3-methyl-1-butanol) is listed as “abolished”. Also, the “Antagonism of the effects of ethanol on cell adhesion (in words)” value in data set [1] (100 mM ethanol) is given as “abolished”. The IC50 in data set [1] (NG108-15, read-out: IC50 for antagonism of 1-butanol (and ethanol) inhibition of cell-cell adhesion) is 3.6 µM; in data set [1] (NG108-15, read-out: IC50 for antagonism of 1-butanol inhibition of cell-cell adhesion), 3.6 µM. The “Potency of antagonism relative to 1-pentanol” value in data set [1] (ratio of IC50 values) is “approximately 200 times”. For the same compound, the Vm molar volume in data set [2] is 158 mL/mol. The “Mechanism of antagonism of 1-butanol inhibition (in words)” value in data set [3] is “complete, reversible, and non-competitive; also recorded: reduced the maximal effectiveness”. Further, the “Antagonism of ethanol enhancement of GIRK ¼ potassium channel activity” value on GIRK ¼ potassium channel is “did not antagonize”. Also, in data set [4], the “Inhibition of cell-cell adhesion (in words)” value is “not inhibited”. In addition, the “Inhibition of cell-cell adhesion at higher concentrations (in words)” value in data set [4] (concentrations 5-10 fold higher than those reported in Table 1) is “inactivity”. Also, the “P(m/b) membrane/buffer partition coefficient” value in [5] was 189.

As to `CCO` [ethanol], the “Inhibition of BMP-7 morphogenesis (percentage of cell clusters)” value in the data set with NG108-15 cells (50 mM ethanol, 0.1-40 ng/ml BMP-7) is listed as “inhibited significantly”. For the same compound, the Vm molar volume in data set [2] was 58 mL/mol. Further, the “Sensitivity of L1-transfected myeloma cells to ethanol” value in data set [6] was “insensitive”. Also, the “Inhibition of cell-cell adhesion (in words)” value in [4] is on record as “maximally inhibited”. The “Sensitivity of L1-transfected insect SF9 cells to ethanol” value in [7] is listed as “insensitive”.
